Measurements published in publication doi:10.1101/2023.11.24.568596v1 (biorxiv, 2023).

Tests used:
Settings in all cases: binder
[1] = target: Erk3 (Homo sapiens, UniProt Q16659)
[2] = target: T1, MAP2K7 (Homo sapiens, UniProt O14733)
T1 sequence (O14733 1-419): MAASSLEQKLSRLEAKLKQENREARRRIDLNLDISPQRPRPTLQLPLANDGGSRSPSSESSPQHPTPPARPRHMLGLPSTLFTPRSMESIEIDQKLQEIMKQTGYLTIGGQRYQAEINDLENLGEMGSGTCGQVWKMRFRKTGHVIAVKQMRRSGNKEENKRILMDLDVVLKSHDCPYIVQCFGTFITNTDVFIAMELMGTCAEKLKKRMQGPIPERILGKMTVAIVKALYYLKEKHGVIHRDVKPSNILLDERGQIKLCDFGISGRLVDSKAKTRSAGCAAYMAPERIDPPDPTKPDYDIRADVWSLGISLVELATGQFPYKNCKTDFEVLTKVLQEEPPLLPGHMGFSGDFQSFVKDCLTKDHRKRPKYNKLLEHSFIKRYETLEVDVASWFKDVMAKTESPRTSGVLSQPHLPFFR

[3] = target: HIPK2 (Homo sapiens, UniProt Q9H2X6)
[4] = target: T2, NQO2A (Homo sapiens, UniProt P16083)
T2 sequence (P16083 1-231): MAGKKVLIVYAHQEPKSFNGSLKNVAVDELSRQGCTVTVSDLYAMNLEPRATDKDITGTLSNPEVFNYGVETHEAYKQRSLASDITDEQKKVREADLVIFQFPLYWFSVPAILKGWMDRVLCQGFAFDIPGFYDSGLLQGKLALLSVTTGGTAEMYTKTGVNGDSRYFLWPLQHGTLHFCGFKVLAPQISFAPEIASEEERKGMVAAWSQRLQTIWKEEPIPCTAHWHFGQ

[5] = target: T3, FECH (Homo sapiens, UniProt P22830)
T3 sequence (P22830 1-423): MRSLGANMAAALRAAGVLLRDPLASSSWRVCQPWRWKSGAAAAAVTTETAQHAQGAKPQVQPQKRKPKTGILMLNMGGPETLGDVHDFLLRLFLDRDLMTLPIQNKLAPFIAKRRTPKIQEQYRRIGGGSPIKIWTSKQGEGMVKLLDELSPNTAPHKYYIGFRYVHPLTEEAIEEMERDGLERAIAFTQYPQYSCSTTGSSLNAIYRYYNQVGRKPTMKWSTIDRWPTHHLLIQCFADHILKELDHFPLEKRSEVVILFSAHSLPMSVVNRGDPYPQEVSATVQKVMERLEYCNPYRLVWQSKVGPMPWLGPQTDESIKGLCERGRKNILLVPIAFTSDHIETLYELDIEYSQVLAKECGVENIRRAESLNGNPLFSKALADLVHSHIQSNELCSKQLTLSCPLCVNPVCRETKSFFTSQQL

[6] = target: T4, EphB1 (Homo sapiens, UniProt P54762)
T4 sequence (P54762 1-984): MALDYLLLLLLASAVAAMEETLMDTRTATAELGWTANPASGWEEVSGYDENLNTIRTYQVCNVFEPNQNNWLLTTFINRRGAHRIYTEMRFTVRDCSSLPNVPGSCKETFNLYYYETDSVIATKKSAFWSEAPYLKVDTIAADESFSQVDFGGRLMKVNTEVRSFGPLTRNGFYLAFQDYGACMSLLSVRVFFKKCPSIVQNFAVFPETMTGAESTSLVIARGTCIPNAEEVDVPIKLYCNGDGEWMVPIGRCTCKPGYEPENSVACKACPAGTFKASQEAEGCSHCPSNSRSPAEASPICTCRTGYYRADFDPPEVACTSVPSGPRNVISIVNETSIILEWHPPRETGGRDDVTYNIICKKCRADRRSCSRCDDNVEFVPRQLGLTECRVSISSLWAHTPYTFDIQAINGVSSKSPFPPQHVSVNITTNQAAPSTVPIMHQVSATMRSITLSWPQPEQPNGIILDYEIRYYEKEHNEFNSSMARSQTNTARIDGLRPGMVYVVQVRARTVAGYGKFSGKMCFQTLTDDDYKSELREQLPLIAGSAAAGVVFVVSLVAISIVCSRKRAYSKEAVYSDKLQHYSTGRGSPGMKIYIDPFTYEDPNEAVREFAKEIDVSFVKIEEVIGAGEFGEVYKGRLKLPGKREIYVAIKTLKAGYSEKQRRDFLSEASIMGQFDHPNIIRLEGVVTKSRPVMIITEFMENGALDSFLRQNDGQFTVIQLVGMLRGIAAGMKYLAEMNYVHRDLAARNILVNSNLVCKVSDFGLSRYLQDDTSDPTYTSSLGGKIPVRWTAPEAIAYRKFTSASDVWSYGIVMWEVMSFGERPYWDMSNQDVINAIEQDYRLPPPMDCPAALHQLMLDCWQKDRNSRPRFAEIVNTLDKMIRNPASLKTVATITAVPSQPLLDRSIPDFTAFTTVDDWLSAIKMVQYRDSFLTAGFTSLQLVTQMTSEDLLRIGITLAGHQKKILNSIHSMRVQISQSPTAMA

Chain of HIPK2 (Q9H2X6 whole entry): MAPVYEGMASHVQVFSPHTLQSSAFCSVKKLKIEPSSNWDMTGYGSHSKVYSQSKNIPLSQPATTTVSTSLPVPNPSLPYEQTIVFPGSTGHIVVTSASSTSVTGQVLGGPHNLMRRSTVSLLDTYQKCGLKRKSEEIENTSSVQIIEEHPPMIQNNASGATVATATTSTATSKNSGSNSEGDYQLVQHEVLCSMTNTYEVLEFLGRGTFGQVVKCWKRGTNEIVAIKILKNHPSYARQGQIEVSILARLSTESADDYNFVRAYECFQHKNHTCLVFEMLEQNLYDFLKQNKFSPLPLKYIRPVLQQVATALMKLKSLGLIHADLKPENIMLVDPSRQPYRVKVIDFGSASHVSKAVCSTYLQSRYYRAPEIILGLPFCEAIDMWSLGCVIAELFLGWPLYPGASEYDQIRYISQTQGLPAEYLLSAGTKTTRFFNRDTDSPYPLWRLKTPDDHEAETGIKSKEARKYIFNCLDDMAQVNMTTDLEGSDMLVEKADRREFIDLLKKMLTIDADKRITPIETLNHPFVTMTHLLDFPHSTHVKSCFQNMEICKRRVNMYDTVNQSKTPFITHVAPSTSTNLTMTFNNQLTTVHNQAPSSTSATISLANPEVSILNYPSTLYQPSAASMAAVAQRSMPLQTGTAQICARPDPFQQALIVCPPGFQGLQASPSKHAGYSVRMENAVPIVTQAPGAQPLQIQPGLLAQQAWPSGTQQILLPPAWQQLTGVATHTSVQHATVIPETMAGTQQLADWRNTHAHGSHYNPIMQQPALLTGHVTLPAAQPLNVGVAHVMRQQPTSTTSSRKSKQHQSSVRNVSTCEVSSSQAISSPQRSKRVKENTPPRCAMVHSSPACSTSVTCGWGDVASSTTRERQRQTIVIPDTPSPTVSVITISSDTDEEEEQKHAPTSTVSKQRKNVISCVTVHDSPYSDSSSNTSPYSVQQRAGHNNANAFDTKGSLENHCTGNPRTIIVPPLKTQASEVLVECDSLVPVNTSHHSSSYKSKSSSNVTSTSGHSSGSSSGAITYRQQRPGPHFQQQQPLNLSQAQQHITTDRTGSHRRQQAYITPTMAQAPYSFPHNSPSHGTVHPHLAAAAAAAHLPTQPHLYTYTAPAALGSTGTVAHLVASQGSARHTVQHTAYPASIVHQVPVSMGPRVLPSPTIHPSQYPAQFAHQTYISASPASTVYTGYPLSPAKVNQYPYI
Chain of Erk3 (Q16659 whole entry): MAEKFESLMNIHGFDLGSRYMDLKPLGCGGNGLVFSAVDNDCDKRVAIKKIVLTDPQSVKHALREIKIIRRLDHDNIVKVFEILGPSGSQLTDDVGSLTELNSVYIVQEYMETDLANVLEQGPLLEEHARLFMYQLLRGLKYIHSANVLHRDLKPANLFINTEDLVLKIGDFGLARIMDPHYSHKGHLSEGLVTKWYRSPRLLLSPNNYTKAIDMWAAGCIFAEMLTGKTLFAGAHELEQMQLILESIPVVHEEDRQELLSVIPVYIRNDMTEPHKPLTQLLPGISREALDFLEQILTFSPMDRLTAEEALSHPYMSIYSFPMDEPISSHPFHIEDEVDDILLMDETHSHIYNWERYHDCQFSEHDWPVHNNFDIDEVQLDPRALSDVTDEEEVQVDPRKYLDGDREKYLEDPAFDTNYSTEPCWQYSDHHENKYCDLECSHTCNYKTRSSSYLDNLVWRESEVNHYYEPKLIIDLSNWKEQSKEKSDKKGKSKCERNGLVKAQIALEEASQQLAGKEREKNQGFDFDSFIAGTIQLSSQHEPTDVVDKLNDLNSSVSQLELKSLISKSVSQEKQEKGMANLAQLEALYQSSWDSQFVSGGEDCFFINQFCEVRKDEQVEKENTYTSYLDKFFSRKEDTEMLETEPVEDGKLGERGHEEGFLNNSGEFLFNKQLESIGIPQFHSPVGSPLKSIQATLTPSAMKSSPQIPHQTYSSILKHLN

CNc1ncc2cc(-c3ccc(-c4cccc(C)n4)cc3Cl)c(=O)n(CCCCN)c2n1 [compound 20, MRLW5]
ΔTm MRLW5 (20) [1]: 0.5 °C

CNc1ncc2cc(-c3ccc(-c4cccc(C)n4)cc3Cl)c(=O)n(CCC3CCNCC3)c2n1 [compound 22, 6-(2-Chloro-4-(6-methylpyridin-2-yl)phenyl)-2-(methylamino)-8-(2-(piperidin-4-yl)ethyl)pyrido[2,3-d]pyrimidin-7(8H)-one]
ΔTm 22 [2]: 4.3 °C
ΔTm 22 [3]: 2.3 °C
ΔTm 22 [4]: -0.1 °C
ΔTm 22 [5]: -0.3 °C
ΔTm 22 [6]: 2.6 °C

CNc1ncc2cc(-c3ccc(-c4cccc(C)n4)cc3Cl)c(=O)n(C[C@H]3CC[C@H](N)CC3)c2n1 [compound 23, 23]
ΔTm 23 [2]: 7.1 °C
ΔTm 23 [3]: 2.1 °C
ΔTm 23 [6]: 3.4 °C

Cc1cccc(-c2ccc(-c3cc4cnc(NC(CO)CO)nc4n(CCCCN)c3=O)c(Cl)c2)n1 [compound 24, 8-(4-Aminobutyl)-6-(2-chloro-4-(6-methylpyridin-2-yl)phenyl)-2-((1,3-dihydroxypropan-2-yl)amino)pyrido[2,3-d]pyrimidin-7(8H)-one]
ΔTm MR24 (24) [1]: 0.4 °C
ΔTm MR24 (24) [2]: 3.0 °C
ΔTm MR24 (24) [3]: 0.4 °C
ΔTm MR24 (24) [4]: 0.3 °C
ΔTm MR24 (24) [5]: -0.5 °C
ΔTm MR24 (24) [6]: 0.2 °C

Cc1cccc(-c2ccc(-c3cc4cnc(NCCCc5ccc(N)cc5)nc4n(CCCCN)c3=O)c(Cl)c2)n1 [compound 25, 8-(4-Aminobutyl)-2-((3-(4-aminophenyl)propyl)amino)-6-(2-chloro-4-(6-methylpyridin-2-yl)phenyl)pyrido[2,3-d]pyrimidin-7(8H)-one]
ΔTm 25 [1]: 1.0 °C
ΔTm 25 [2]: 6.7 °C
ΔTm 25 [3]: 0.8 °C
ΔTm 25 [4]: 0.5 °C
ΔTm 25 [5]: 3.0 °C
ΔTm 25 [6]: 3.0 °C

Cc1cccc(-c2ccc(-c3cc4cnc(NCCCN5CCOCC5)nc4n(CCCCN)c3=O)c(Cl)c2)n1 [compound 26, MR26]
ΔTm MR26 (26) [1]: 0.4 °C
ΔTm MR26 (26) [2]: 3.1 °C
ΔTm MR26 (26) [3]: 0.4 °C
ΔTm MR26 (26) [4]: 0.1 °C
ΔTm MR26 (26) [5]: 0.3 °C
ΔTm MR26 (26) [6]: 3.7 °C
